Results from patent US9346761B2, “Arginine methyltransferase inhibitors and uses thereof” (Epizyme, Inc., priority 2013, dated 2016).
Where two headings read alike, the source gives them in different places.

Experiments:
[1] = biological target: T1, Full-length human PRMT8 (Homo sapiens, UniProt Q9NR22); assay: PRMT8 biochemical assay (3H-SAM Flashplate, peptide substrate)
T1 construct: Full-length human PRMT8 (NM_019854.4) isoform 1 transcript clone; made in house
Summary of the method: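 Methylation of a biotinylated H4 (31-45) peptide by ³H-SAM was counted after streptavidin Flashplate capture. Purified recombinant PRMT8 and compound were preincubated 30 min at room temperature in Bicine buffer pH 7.6 with TCEP, BSG and Tween 20, and reactions were stopped with unlabeled SAM (final 400 μM). Inhibition versus DMSO and SAH controls was fit by 3- or 4-parameter curves.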

[2] = system: mono-methyl arginine in RKO cells; assay: RKO methylation assay, In Cell Western for mono-methyl arginine and DNA content; format: cell-based; settings: Homo sapiens
[3] = In Cell Western, RKO cells, 72 hours, percent activation of mono-methyl arginine signal, read-out: EC30

T1 sequence (Q9NR22 whole entry, canonical isoform): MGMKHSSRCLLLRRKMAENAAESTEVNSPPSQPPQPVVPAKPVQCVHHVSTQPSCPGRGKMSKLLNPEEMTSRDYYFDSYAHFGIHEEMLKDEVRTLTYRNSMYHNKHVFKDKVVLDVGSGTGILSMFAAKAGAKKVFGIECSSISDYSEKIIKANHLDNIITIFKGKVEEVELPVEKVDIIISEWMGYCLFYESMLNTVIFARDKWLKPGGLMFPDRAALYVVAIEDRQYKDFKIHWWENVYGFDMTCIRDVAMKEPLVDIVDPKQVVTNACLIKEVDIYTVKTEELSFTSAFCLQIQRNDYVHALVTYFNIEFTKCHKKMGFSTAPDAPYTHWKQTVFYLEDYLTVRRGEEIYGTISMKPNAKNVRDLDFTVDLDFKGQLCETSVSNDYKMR

Cc1cc(-c2n[nH]cc2CN(C)CCN)cc(C)c1OC(C)C [Compound 199, N^1-((3-(4-isopropoxy-3,5-dimethylphenyl)-1H-pyrazol-4-yl)methyl)-N^1-methylethane-1,2-diamine]
IC50 [1]: 0.101 to 1 µM
EC30 [2, 3]: < 3 µM

CN(CCN)Cc1c[nH]nc1-c1ccc(Oc2ccccc2)c(C#N)c1 [Compound 202]
IC50 [1]: 0.101 to 1 µM
EC30 [2, 3]: < 3 µM

CN(CCN)Cc1n[nH]cc1-c1ccc(Oc2ccccc2)cc1 [Compound 203]
IC50 [1]: 0.101 to 1 µM
EC30 [2, 3]: < 3 µM

CNCCN(C)Cc1n[nH]cc1-c1ccc(Oc2ccccc2)cc1 [Compound 204]
IC50 [1]: < 0.1 µM
EC30 [2, 3]: < 3 µM

CN(CCN)Cc1c[nH]nc1-c1ccc(Oc2cccc(F)c2)cc1 [Compound 205]
IC50 [1]: 0.101 to 1 µM
EC30 [2, 3]: < 3 µM

CNCCN(C)Cc1cn(C)nc1-c1ccc(OC(C)C)c(Cl)c1 [Compound 206]
IC50 [1]: 0.101 to 1 µM
EC30 ([2]; RKO, 72 h): < 3 µM

CNCCN(C)Cc1cn(C)nc1-c1ccc(Oc2ccccc2)cc1 [Compound 207]
IC50 [1]: 0.101 to 1 µM
EC30 [2, 3]: < 3 µM

CNCCN(C)Cc1cnn(C)c1-c1ccc(Oc2ccccc2)cc1 [Compound 208]
IC50 [1]: 0.101 to 1 µM
EC30 [2, 3]: < 3 µM

CNCCN(C)Cc1c[nH]nc1-c1ccc(OCCCOC)cc1 [Compound 209]
IC50 [1]: 0.101 to 1 µM
EC30 [2, 3]: < 3 µM

CNCCN(C)Cc1n[nH]cc1-c1ccc(OC(C)C)c(F)c1 [Compound 210]
IC50 [1]: 0.101 to 1 µM
EC30 [2, 3]: < 3 µM

CC(C)Oc1ccc(-c2c[nH]nc2CN(C)CCN)cc1Cl [Compound 211]
IC50 [1]: 0.101 to 1 µM
EC30 [2, 3]: < 3 µM

CNCCN(C)Cc1n[nH]cc1-c1ccc(OC(C)C)c(Cl)c1 [Compound 212]
IC50 [1]: < 0.1 µM
EC30 [2, 3]: < 3 µM

CNCCN(C)Cc1c[nH]nc1-c1ccc(Oc2ccccc2)c(C#N)c1 [Compound 221]
IC50 [1]: 0.101 to 1 µM
EC30 [2, 3]: < 3 µM

CN(CCN)Cc1c(-c2ccc(C#N)cc2)ncn1C [Compound 222]
IC50 [1]: 3.01 to 10 µM
EC30 [2, 3]: > 12 µM

CN(CCN)Cc1c[nH]nc1-c1ccc(Oc2ccccc2)c(F)c1 [Compound 224, N^1-((3-(3-fluoro-4-phenoxyphenyl)-1H-pyrazol-4-yl)methyl)-N^1-methylethane-1,2-diamine]
IC50 [1]: 0.101 to 1 µM
EC30 ([2]; RKO, 72 h): < 3 µM

CN(CCN)Cc1c[nH]nc1-c1ccc(Oc2ccc(F)cc2)cc1 [Compound 225, N^1-((3-(4-(4-fluorophenoxy)phenyl)-1H-pyrazol-4-yl)methyl)-N^1-methylethane-1,2-diamine]
IC50 [1]: < 0.1 µM
EC30 [2, 3]: < 3 µM

CN(CCN)Cc1c[nH]nc1-c1ccc(Oc2ccccc2)c(C(=O)N(C)C)c1 [Compound 226]
IC50 [1]: 3.01 to 10 µM
EC30 [2, 3]: > 12 µM

CNC(=O)c1cc(-c2n[nH]cc2CN(C)CCN)ccc1Oc1ccccc1 [Compound 227]
IC50 [1]: 0.101 to 1 µM
EC30 [2, 3]: > 12 µM

CNCCN(C)Cc1c[nH]nc1-c1ccc(OCCCOC)c(Cl)c1 [Compound 228]
IC50 [1]: 0.101 to 1 µM
EC30 [2, 3]: < 3 µM

CNCCN(C)Cc1cnn(CC(=O)OC)c1-c1ccc(OC(C)C)cc1 [Compound 249]
IC50 [1]: 1.01 to 3 µM
EC30 ([2]; RKO, 72 h): 3.01 to 12 µM

CNCCN(C)Cc1cn(CC(=O)O)nc1-c1ccc(OC(C)C)cc1 [Compound 250]
IC50 [1]: 1.01 to 3 µM
EC30 ([2]; RKO, 72 h): > 12 µM

CNCCN(C)Cc1cn(C2CCCCC2)nc1-c1ccc(OC(C)C)cc1 [Compound 256]
IC50 [1]: 1.01 to 3 µM
EC30 [2, 3]: > 12 µM
